# Data: patent publication US11524966B1 (Valo Early Discovery, Inc., priority 2017, dated 2022)
# Molecular target: T1, USP28 (His-tagged USP28-FL-mammalian) (Homo sapiens, UniProt Q96RU2)
# T1 construct: Expression of USP28 (1-1077)-TEV-6*His (pTT5 vector); made in house; host or cells: Expi293f cells (pTT5 vector)
# T1 sequence (Q96RU2 1-1077): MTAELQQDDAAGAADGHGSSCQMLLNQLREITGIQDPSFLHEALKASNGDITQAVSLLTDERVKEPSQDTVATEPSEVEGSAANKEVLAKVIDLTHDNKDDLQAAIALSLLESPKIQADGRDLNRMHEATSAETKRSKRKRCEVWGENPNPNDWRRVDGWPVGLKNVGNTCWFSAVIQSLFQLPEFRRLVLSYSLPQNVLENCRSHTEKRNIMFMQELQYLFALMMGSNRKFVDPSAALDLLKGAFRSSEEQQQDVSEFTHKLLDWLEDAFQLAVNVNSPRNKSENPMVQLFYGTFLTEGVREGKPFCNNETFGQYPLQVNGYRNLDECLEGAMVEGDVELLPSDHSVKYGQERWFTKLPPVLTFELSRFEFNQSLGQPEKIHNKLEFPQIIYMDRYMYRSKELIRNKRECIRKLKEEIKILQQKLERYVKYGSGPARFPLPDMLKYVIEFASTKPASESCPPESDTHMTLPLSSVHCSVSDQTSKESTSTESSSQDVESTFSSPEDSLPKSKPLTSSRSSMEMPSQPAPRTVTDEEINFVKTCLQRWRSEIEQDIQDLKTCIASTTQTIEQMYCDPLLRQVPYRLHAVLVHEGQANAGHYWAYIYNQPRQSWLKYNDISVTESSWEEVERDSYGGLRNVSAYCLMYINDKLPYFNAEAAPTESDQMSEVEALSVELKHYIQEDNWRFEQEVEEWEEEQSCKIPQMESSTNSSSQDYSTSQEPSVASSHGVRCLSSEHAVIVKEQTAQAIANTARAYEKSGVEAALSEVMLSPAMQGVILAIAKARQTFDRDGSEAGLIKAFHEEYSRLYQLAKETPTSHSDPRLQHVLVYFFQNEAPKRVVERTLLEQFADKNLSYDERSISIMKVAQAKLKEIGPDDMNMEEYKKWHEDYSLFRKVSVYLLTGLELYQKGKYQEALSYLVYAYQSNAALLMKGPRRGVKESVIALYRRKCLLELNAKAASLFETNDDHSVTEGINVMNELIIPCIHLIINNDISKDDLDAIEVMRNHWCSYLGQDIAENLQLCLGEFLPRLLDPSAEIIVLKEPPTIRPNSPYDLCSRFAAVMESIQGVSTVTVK
# Assay: Ubiquitin-Rhodamine 110 Assay for USP28 Activity, Example A-1(a)
# Format: biochemical
# Conditions: Ubiquitin-Rhodamine 110 assay, Example A-1(a); read-out: USP28 A-1(a) IC50 range
# How it was run: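 Full-length His-tagged USP28 (1-1077, Expi293F-expressed; […]) was preincubated 30 min with compound (25 μM–1.3 nM, 10-point 3-fold) in 20 mM Tris-HCl pH 8.0, 3 mM BME, 0.03% BGG, 0.01% Triton X-100. Ub-Rh110 (25 nM) was then added for 45 min at room temperature, stopped with citric acid, and read by fluorescence (485/535 nm).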
row,SMILES,IC50 [nM]
1,"Cc1cc(C)c2c(N)c(C(=O)N[C@H]3COc4cc(N5CC[C@@H]6CNC[C@@H]65)ccc4C3)sc2n1 [Example 227, N-[(3R)-7-[(3aR,6aR)-octahydropyrrolo[2,3-c]pyrrol-1-yl]-3,4-dihydro-2H-1-benzopyran-3-yl]-3-amino-4,6-dimethylthieno[2,3-b]pyridine-2-carboxamide]",1 to 50
2,"N#Cc1c(N2CC3CCC(C2)N3)cc(F)c2c1OC[C@H](NC(=O)c1cnc3c(c1)[C@@H]1C[C@@H]1CN3)C2 [Example 228, (6aS,7aR)-N-[(3R)-8-cyano-7-{3,8-diazabicyclo[3.2.1]octan-3-yl}-5-fluoro-3,4-dihydro-2H-1-benzopyran-3-yl]-5H,6H,6aH,7H,7aH-cyclopropa[c]1,8-naphthyridine-2-carboxamide]",200 to 2000
3,"N#Cc1c(N2CC3CCC(C2)N3)cc(F)c2c1OC[C@H](NC(=O)c1cnc3c(c1)[C@H]1C[C@H]1CN3)C2 [Example 229, (6aR,7aS)-N-[(3R)-8-cyano-7-{3,8-diazabicyclo[3.2.1]octan-3-yl}-5-fluoro-3,4-dihydro-2H-1-benzopyran-3-yl]-5H,6H,6aH,7H,7aH-cyclopropa[c]1,8-naphthyridine-2-carboxamide]",200 to 2000
4,"Cc1cc(C)c2c(N)c(C(=O)N[C@H]3COc4c(C#N)c(N5CC6CCC(C5)N6)cc(F)c4C3)sc2n1 [Example 230, 3-amino-N-[(3R)-8-cyano-7-{3,8-diazabicyclo[3.2.1]octan-3-yl}-5-fluoro-3,4-dihydro-2H-1-benzopyran-3-yl]-4,6-dimethylthieno[2,3-b]pyridine-2-carboxamide]",1 to 50
5,"Cc1ccc2c(N)c(C(=O)N[C@H]3COc4cc(N5CC[C@H]6CC[C@@H](N)C[C@H]65)ccc4C3)sc2n1 [Example 231, N-[(3R)-7-[(3aR,6R,7aR)-6-amino-octahydro-1H-indol-1-yl]-3,4-dihydro-2H-1-benzopyran-3-yl]-3-amino-6-methylthieno[2,3-b]pyridine-2-carboxamide]",1 to 50
6,"Cc1ccc2c(N)c(C(=O)N[C@H]3COc4cc(N5CC[C@H]6CC[C@H](N)C[C@H]65)ccc4C3)sc2n1 [Example 232, N-[(3R)-7-[(3aR,6S,7aR)-6-amino-octahydro-1H-indol-1-yl]-3,4-dihydro-2H-1-benzopyran-3-yl]-3-amino-6-methylthieno[2,3-b]pyridine-2-carboxamide]",1 to 50
7,"Cc1ccc2c(N)c(C(=O)N[C@H]3COc4cc(N5CC[C@@H]6CC[C@@H](N)C[C@@H]65)ccc4C3)sc2n1 [Example 233, N-[(3R)-7-[(3aS,6R,7aS)-6-amino-octahydro-1H-indol-1-yl]-3,4-dihydro-2H-1-benzopyran-3-yl]-3-amino-6-methylthieno[2,3-b]pyridine-2-carboxamide]",1 to 50
8,"Cc1ccc2c(N)c(C(=O)N[C@H]3COc4cc(N5CC[C@@H]6CC[C@H](N)C[C@@H]65)ccc4C3)sc2n1 [Example 234, N-[(3R)-7-[(3aS,6S,7aS)-6-amino-octahydro-1H-indol-1-yl]-3,4-dihydro-2H-1-benzopyran-3-yl]-3-amino-6-methylthieno[2,3-b]pyridine-2-carboxamide]",1 to 50
9,"Cc1ccc2c(N)c(C(=O)N[C@H]3COc4cc(N5CC[C@H]6CNCC[C@H]65)ccc4C3)sc2n1 [Example 235, N-[(3R)-7-[(3aS,7aR)-octahydro-1H-pyrrolo[3,2-c]pyridin-1-yl]-3,4-dihydro-2H-1-benzopyran-3-yl]-3-amino-6-methylthieno[2,3-b]pyridine-2-carboxamide]",1 to 50
10,"Cc1ccc2c(N)c(C(=O)N[C@H]3COc4cc(N5CC[C@@H]6CNCC[C@@H]65)ccc4C3)sc2n1 [Example 236, N-[(3R)-7-[(3aR,7aS)-octahydro-1H-pyrrolo[3,2-c]pyridin-1-yl]-3,4-dihydro-2H-1-benzopyran-3-yl]-3-amino-6-methylthieno[2,3-b]pyridine-2-carboxamide]",1 to 50
11,"Cc1ccc2c(N)c(C(=O)N[C@H]3COc4cc(N5C[C@@H]6NCCC(F)(F)[C@@H]6C5)ccc4C3)sc2n1 [Example 237, N-[(3R)-7-[(4aR,7aR)-4,4-difluoro-octahydro-1H-pyrrolo[3,4-b]pyridin-6-yl]-3,4-dihydro-2H-1-benzopyran-3-yl]-3-amino-6-methylthieno[2,3-b]pyridine-2-carboxamide]",1 to 50
12,"Cc1ccc2c(N)c(C(=O)N[C@H]3COc4cc(N5C[C@H]6NCCC(F)(F)[C@H]6C5)ccc4C3)sc2n1 [Example 238, N-[(3R)-7-[(4aS,7aS)-4,4-difluoro-octahydro-1H-pyrrolo[3,4-b]pyridin-6-yl]-3,4-dihydro-2H-1-benzopyran-3-yl]-3-amino-6-methylthieno[2,3-b]pyridine-2-carboxamide]",1 to 50
13,"CO[C@H]1CN(c2ccc3c(n2)CC[C@H](NC(=O)c2sc4nc(C)ccc4c2N)C3)C[C@]1(C)N [Example 239, 3-amino-N-[(6S)-2-[(3S,4S)-3-amino-4-methoxy-3-methylpyrrolidin-1-yl]-5,6,7,8-tetrahydroquinolin-6-yl]-6-methylthieno[2,3-b]pyridine-2-carboxamide]",200 to 2000
14,"CO[C@@H]1CN(c2ccc3c(n2)CC[C@H](NC(=O)c2sc4nc(C)ccc4c2N)C3)C[C@@]1(C)N [Example 240, 3-amino-N-[(6S)-2-[(3R,4R)-3-amino-4-methoxy-3-methylpyrrolidin-1-yl]-5,6,7,8-tetrahydroquinolin-6-yl]-6-methylthieno[2,3-b]pyridine-2-carboxamide]",200 to 2000
15,"Cc1cc(C)c2c(N)c(C(=O)N[C@H]3COc4cc(N5CC6CCC(C5)N6)c(C#N)c(F)c4C3)sc2n1 [Example 241, 3-amino-N-[(3R)-6-cyano-7-{3,8-diazabicyclo[3.2.1]octan-3-yl}-5-fluoro-3,4-dihydro-2H-1-benzopyran-3-yl]-4,6-dimethylthieno[2,3-b]pyridine-2-carboxamide]",1 to 50
16,"Cc1ccc2c(N)c(C(=O)N[C@H]3COc4cc(N5CCC[C@@H]6CNC[C@@H]65)ccc4C3)sc2n1 [Example 242, N-[(3R)-7-[(4aR,7aR)-octahydro-1H-pyrrolo[3,4-b]pyridin-1-yl]-3 ,4-dihydro-2H-1-benzopyran-3-yl]-3-amino-6-methylthieno[2,3-b]pyridine-2-carboxamide]",1 to 50
17,"Cc1ccc2c(N)c(C(=O)N[C@H]3COc4cc(N5CCC[C@H]6CNC[C@H]65)ccc4C3)sc2n1 [Example 243, N-[(3R)-7-[(4aS,7aS)-octahydro-1H-pyrrolo[3,4-b]pyridin-1-yl]-3,4-dihydro-2H-1-benzopyran-3-yl]-3-amino-6-methylthieno[2,3-b]pyridine-2-carboxamide]",1 to 50
18,"Cc1ccc2c(N)c(C(=O)N[C@H]3COc4cc(N5C[C@H](N)CC[C@@H]5C(F)(F)F)ccc4C3)sc2n1 [Example 244, 3-amino-N-[(3R)-7-[(2R,5R)-5-amino-2-(trifluoromethyl)piperidin-1-yl]-3,4-dihydro-2H-1-benzopyran-3-yl]-6-methylthieno[2,3-b]pyridine-2-carboxamide]",1 to 50
19,"Cc1ccc2c(N)c(C(=O)N[C@H]3COc4cc(N5C[C@@H](N)CC[C@H]5C(F)(F)F)ccc4C3)sc2n1 [Example 245, 3-amino-N-[(3R)-7-[(2S,5S)-5-amino-2-(trifluoromethyl)piperidin-1-yl]-3,4-dihydro-2H-1-benzopyran-3-yl]-6-methylthieno[2,3-b]pyridine-2-carboxamide]",1 to 50
20,"Cc1ccc2c(N)c(C(=O)N[C@H]3COc4cc(N5C[C@@H](N)CC[C@@H]5C(F)(F)F)ccc4C3)sc2n1 [Example 246, 3-amino-N-[(3R)-7-[(2R,5S)-5-amino-2-(trifluoromethyl)piperidin-1-yl]-3,4-dihydro-2H-1-benzopyran-3-yl]-6-methylthieno[2,3-b]pyridine-2-carboxamide]",1 to 50
21,"Cc1ccc2c(N)c(C(=O)N[C@H]3COc4cc(N5C[C@H](N)CC[C@H]5C(F)(F)F)ccc4C3)sc2n1 [Example 247, 3-amino-N-[(3R)-7-[(2S,5R)-5-amino-2-(trifluoromethyl)piperidin-1-yl]-3,4-dihydro-2H-1-benzopyran-3-yl]-6-methylthieno[2,3-b]pyridine-2-carboxamide]",1 to 50
